Measured values from the supplement of paper PMC11451515.

Key:
Experiment in all cases: AUC of viability dose-response curve (% viability x log10 dose units); higher = less sensitive
Settings in all cases: 48 h
NOMO1 = system: NOMO1
Outline: (§1)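 Leukemia cells adapted to each medium were seeded in 1536-well plates (500 or 1000 cells/well) and given library compounds in DMSO for 48 h at 37°C. The 11 threefold doses spanned 47 μM to 0.79 nM, and CellTiter-Glo One luminescence was normalised per plate to DMSO and cell-free wells before four-parameter log-logistic fitting on log10 dose. Area under the curve was integrated with the trapezoidal rule, scaling curves above full viability and removing curves that failed quality control.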

P12-Ichikawa = system: P12-Ichikawa
Outline: as §1

SEM cells = system: SEM cells
Outline: as §1

[1] = RPMI 5 mM glucose + 10% dialyzed FBS

| SMILES | AUC of viability dose-response curve (NOMO1; HPLM + 10% dialyzed FBS) | AUC of viability dose-response curve (NOMO1; RPMI 5 mM glucose + 10% FBS) | AUC of viability dose-response curve (NOMO1; [1]) | AUC of viability dose-response curve (P12-Ichikawa; HPLM + 10% dialyzed FBS) | AUC of viability dose-response curve (P12-Ichikawa; RPMI 5 mM glucose + 10% FBS) | AUC of viability dose-response curve (P12-Ichikawa; [1]) | AUC of viability dose-response curve (SEM cells; HPLM + 10% dialyzed FBS) | AUC of viability dose-response curve (SEM cells; RPMI 5 mM glucose + 10% FBS) | AUC of viability dose-response curve (SEM cells; [1]) |
| --- | --- | --- | --- | --- | --- | --- | --- | --- | --- |
| N[C@@H](Cc1ccc(N(CCCl)CCCl)cc1)C(=O)O | 400 | 422 | 415 | 410 | 374 | 387 | 377 | 355 | 362 |
| Oc1ccc(C2CNCCc3c2cc(O)c(O)c3Cl)cc1 (stereo not given) | 449 | 425 | 454 | 453 | 456 | 427 | 441 | 426 | 438 |
| CN1C(=O)\C(=C/C2=C1N=C(NC3CCOCC3)N=C2)OC4=C(F)C=C(F)C=C4 | 420 | 406 | 413 | 428 | 429 | 420 | 439 | 463 | 430 |
| NC(=O)c1c(OCc2c(F)cc(Br)cc2F)nsc1NC(=O)NCCCCN1CCCC1 | 370 | 450 | 421 | 430 | 445 | 436 | 415 | 397 | 435 |
| COc1cc([S+](C)(=O)[O-])ccc1Nc1nc2ccc(-c3ccc(NC(=O)[C@H](C)c4ccc(F)cc4)cc3)cn2n1 | 430 | 439 | 436 | 396 | 386 | 394 | 377 | 369 | 384 |
| Cc1cc(-c2ccc(CC(=O)Nc3ccc(-c4cccnc4)cc3)cc2)ccn1 | 380 | 420 | 413 | 439 | 447 | 438 | 392 | 418 | 413 |
| CCC[S+](=O)([O-])Nc1ccc(F)c(C(=O)c2c[nH]c3ncc(-c4ccc(Cl)cc4)cc23)c1F | 445 | 477 | 461 | 455 | 452 | 446 | 470 | 474 | 464 |
| C[C@]12CCC(=O)C(O)=C1CC[C@@H]1[C@@H]2CC[C@]2(C)C(=O)CC[C@@H]12 | 467 | 454 | 462 | 468 | 455 | 459 | 473 | 471 | 460 |
| N[C@@H](Cc1cc(I)c(Oc2cc(I)c(O)c(I)c2)c(I)c1)C(=O)O | 456 | 473 | 429 | 445 | 460 | 468 | 463 | 454 | 438 |
| CC[C@@H](C)[C@H](NC(=O)[C@H](CC1CCCCC1)NC(=O)c1ccno1)C(=O)N1CCC2(CCc3ccccc32)CC1 | 399 | 385 | 385 | 418 | 394 | 388 | 382 | 381 | 449 |
| CCCCCCCN(CC)CCCC(O)c1ccc(NS(C)(=O)=O)cc1.CCCCCCCN(CC)CCCC(O)c1ccc(NS(C)(=O)=O)cc1.O=C(O)/C=C/C(=O)O (stereo not given) | 471 | 463 | 464 | 460 | 457 | 461 | 446 | 421 | 443 |
| C=C1C(=O)O[C@@H]2[C@H]3O[C@]3(C)CC/C=C(\C)CC[C@@H]12 | 360 | 375 | 386 | 347 | 358 | 351 | 328 | 275 | 329 |
| CCOC(=O)c1c(/C(C#N)=C\N)c2ccc(Cl)c(Cl)c2n1C | 442 | 395 | 407 | 432 | 412 | 429 | 412 | 427 | 408 |
| CN1C(=O)C(=C/2N(C(=O)N(C3CC3)C(=O)C2=C1/NC4=CC=C(I)C=C4F)C5=CC=CC(=C5)NC(C)=O)\C | 249 | 255 | 255 | 354 | 340 | 355 | 325 | 323 | 318 |
| Cc1ccc(Nc2nccc(N(C)c3ccc4c(C)n(C)nc4c3)n2)cc1[S+](N)(=O)[O-] | 462 | 464 | 476 | 450 | 444 | 450 | 400 | 371 | 388 |
